Measured values reported in ChEMBL document CHEMBL1201862, “PubChem BioAssay data set” (2004).
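Five concentrations, 48 hours, 96-well plates. GI50: concentration for 50% inhibition of growth.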 Activity calls are given as the source filed them. Rule as the data show it: active = GI50 up to about 1.1 µM and inactive = higher.

What was measured:
Assay in all cases: DTP human tumour cell line panel, 48 h
UACC-257 = system: UACC-257
SF-295 = system: SF-295
SR = system: SR
CCRF-CEM = system: CCRF-CEM
COLO 205 = system: COLO 205
M14 = system: M14
Malme-3M = system: Malme-3M
U-251 = system: U-251
SK-OV-3 = system: SK-OV-3
SF-539 = system: SF-539
IGROV-1 = system: IGROV-1
DMS-273 = system: DMS-273
SNB-75 = system: SNB-75
SN12C = system: SN12C
MOLT-4 = system: MOLT-4
SK-MEL-2 = system: SK-MEL-2
A498 = system: A498

Measured: GI50

N=C(N)N/N=C(/c1nc2ccc([N+](=O)[O-])cc2[nH]c1=O)C(O)c1ccc([N+](=O)[O-])cc1 (configuration not stated)
inactive: UACC-257 > 100 µM | SF-295 > 100 µM | SR > 100 µM | CCRF-CEM > 100 µM | COLO 205 79.8 µM | M14 79.3 µM | Malme-3M 83.8 µM | U-251 67.3 µM | SK-OV-3 > 100 µM | SF-539 31.3 µM | IGROV-1 > 100 µM | DMS-273 55.7 µM | SNB-75 86.1 µM | SN12C > 100 µM | MOLT-4 > 100 µM

O=C(CSc1nnc(Cc2ccccc2)o1)Nc1ccc([N+](=O)[O-])cc1
inactive: UACC-257 > 100 µM | SF-295 52 µM | SK-MEL-2 > 100 µM | CCRF-CEM > 100 µM | A498 > 100 µM | COLO 205 > 100 µM | M14 > 100 µM | Malme-3M > 100 µM | U-251 > 100 µM | SK-OV-3 > 100 µM | SF-539 > 100 µM | IGROV-1 > 100 µM | DMS-273 > 100 µM | SNB-75 > 100 µM | SN12C > 100 µM | MOLT-4 87.3 µM

CSC(C1c2ccccc2N(C)c2[nH]c(=O)n(C)c(=O)c21)S(=O)(=O)c1ccc(C)cc1 (configuration not stated)
inactive: UACC-257 60 µM | SF-295 > 100 µM | SK-MEL-2 > 100 µM | CCRF-CEM 33.3 µM | A498 > 100 µM | COLO 205 > 100 µM | Malme-3M > 100 µM | U-251 > 100 µM | SK-OV-3 > 100 µM | SF-539 42.7 µM | IGROV-1 > 100 µM | DMS-273 43.5 µM | SNB-75 68.5 µM | SN12C > 100 µM | MOLT-4 40 µM

COC(=O)NN=C1C(C)(C)C(=O)C1(C)C
inactive: UACC-257 > 100 µM | SF-295 > 100 µM | SK-MEL-2 > 100 µM | CCRF-CEM > 100 µM | A498 > 100 µM | COLO 205 > 100 µM | M14 > 100 µM | Malme-3M > 100 µM | U-251 > 100 µM | SK-OV-3 > 100 µM | SF-539 > 100 µM | IGROV-1 > 100 µM | DMS-273 > 100 µM | SNB-75 > 100 µM | MOLT-4 > 100 µM

COC(=O)/C=C1\CCC2[C@@H](C(=O)CC3[C@]2(C)CCC[C@@]3(C)C(=O)OC)C1C (some centres not stated)
inactive: UACC-257 17.9 µM | SF-295 25.6 µM | SK-MEL-2 18.2 µM | CCRF-CEM 9.2 µM | A498 34.7 µM | COLO 205 17.3 µM | M14 17.9 µM | Malme-3M 21.1 µM | U-251 33.3 µM | SK-OV-3 37.9 µM | SF-539 25.2 µM | IGROV-1 24.6 µM | DMS-273 22 µM | SNB-75 18.5 µM | SN12C 24.8 µM | MOLT-4 6.37 µM
